Measurements reported in patent US8916183B2, “Pesticidal compositions and processes related thereto” (priority 2012, dated 2014).
Read-outs that look alike come from different tables or passages of the source.

Key:
Format in all cases: in vivo
[1] = system: Beet Armyworm (BAW) (Spodoptera exigua); test: Bioassay on beet armyworm (BAW), 128-well diet tray assay; conditions: Spodoptera exigua, read-out: % Mortality BAW 50 μg/cm^2
[2] = system: Corn Earworm (CEW) (Helicoverpa zea); test: Bioassay on corn earworm (CEW), 128-well diet tray assay; conditions: Helicoverpa zea, read-out: % Mortality CEW 50 μg/cm^2
Method in brief: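 Activity was scored as percent larval mortality per well, averaged across eight wells and reported on a rating scale. Diet trays (128-well) were kept at 25° C with 14:10 light-dark for five to seven days.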

[3] = system: Green Peach Aphid (GPA) (Myzus persicae); test: Bioassay on green peach aphid (GPA), foliar spray on cabbage seedlings; conditions: read-out: % Mortality GPA 200 ppm
Method in brief: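 Cabbage seedlings (2-3 true leaves), each infested a day earlier with 20-50 wingless adult and nymph GPA, were sprayed on both leaf sides to runoff, four pots per treatment. Corrected % control was calculated against solvent-check plants.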

SMILES	mortality at 50 µg/cm2 ([1]; beet armyworm, 50 μg/cm^2)	mortality at 50 µg/cm2 ([2]; corn earworm, 50 μg/cm^2)	mortality at 200 ppm ([3]; green peach aphid, 200 ppm)	mortality at 50 µg/cm2 [1]	mortality at 50 µg/cm2 [2]	mortality at 200 ppm [3]
COc1ccccc1N1CCCS/C1=N\N=C\c1ccc(-c2ncn(-c3ccc(OC(F)(F)F)cc3)n2)cc1 [Compound 191C]	50 to 100%	50 to 100%	0%			
Cc1cccc(C)c1/N=C(/N/N=C/c1ccc(-c2ncn(-c3ccc(OC(F)(F)F)cc3)n2)cc1)SCOC(=O)CNC(=O)OC(C)(C)C [Compound 30C]	50 to 100%	50 to 100%	0 to 80%			
Cc1cccc(C)c1-n1c(-c2nccs2)cs/c1=N\N=Cc1ccc(-c2ncn(-c3ccc(OC(F)(F)F)cc3)n2)cc1 [Compound 75C]	50 to 100%	50 to 100%	0 to 80%			
CC1CS/C(=N\N=C\c2ccc(-c3ncn(-c4ccc(OC(F)(F)F)cc4)n3)cc2)N(c2ccccc2C(C)C)C1 (racemic) [Compound 178C]	50 to 100%	50 to 100%	0%			
CCc1ccccc1N1CCS/C1=N\N=C\c1ccc(-c2ncn(-c3ccc(OC(F)(F)F)cc3)n2)cc1 [Compound 133C]	50 to 100%	50 to 100%	0 to 80%			
CC1CS/C(=N\N=C\c2ccc(-c3ncn(-c4ccc(OC(F)(F)F)cc4)n3)cc2)N1c1ccccc1OC(F)(F)F (stereo not drawn) [Compound 168C]	50 to 100%	50 to 100%	0%			
Cc1cccc(C)c1/N=C(/N/N=C/c1ccc(-c2ncn(-c3ccc(OC(F)(F)F)cc3)n2)cc1)SCc1ccc(S(=O)(=O)Nc2ccc(F)cc2)cc1 [Compound 18C]	50 to 100%	50 to 100%	0 to 80%			
COC(=O)c1ccc(CS/C(=N\c2c(C)cccc2C)N/N=C/c2ccc(-c3ncn(-c4ccc(OC(F)(F)F)cc4)n3)cc2)cc1 [Compound 12C]	50 to 100%	50 to 100%	0 to 80%			
COc1cc(C)c(N2CCS/C2=N\N=C\c2ccc(-c3ncn(-c4ccc(OC(F)(F)F)cc4)n3)cc2)c(C)c1 [Compound 138C]	50 to 100%	50 to 100%	0 to 80%			
CCc1cccc(C)c1N1/C(=N/N=C/c2ccc(-c3ncn(-c4ccc(OC(F)(F)F)cc4)n3)cc2)SCCC1C (stereo not drawn) [Compound 213C]	50 to 100%	50 to 100%	0 to 80%			
Cc1cccc(C)c1/N=C(/N/N=C/c1ccc(-c2ncn(-c3ccc(OC(F)(F)F)cc3)n2)cc1)SCC(=O)O [Compound 47C]	50 to 100%	50 to 100%	0 to 80%			
Cc1cccc(Cl)c1-n1c(C)cs/c1=N\N=C\c1ccc(-c2ncn(-c3ccc(OC(F)(F)F)cc3)n2)cc1 [Compound 174C]	50 to 100%	50 to 100%	0 to 80%			
COc1cc(C)c(N2/C(=N/N=C/c3ccc(-c4ncn(-c5ccc(OC(F)(F)F)cc5)n4)cc3)SCC2(C)O)c(C)c1 (stereo not drawn) [Compound 255C]	50 to 100%	50 to 100%	0%			
COc1cc(C)c(/N=C(/N/N=C/c2ccc(-c3ncn(-c4ccc(OC(F)(F)F)cc4)n3)cc2)SCOC(=O)CNC(=O)OCc2ccccc2)c(C)c1 [Compound 28C]				50 to 100%	50 to 100%	0 to 80%
Cc1cccc(C)c1/N=C(/N/N=C/c1ccc(-c2ncn(-c3ccc(OC(F)(F)F)cc3)n2)cc1)SCc1ccc(F)cc1F [Compound 7C]	0%	50 to 100%	0%			
Cc1cnccc1N1C(=O)CS/C1=N\N=C\c1ccc(-c2ncn(-c3ccc(OC(F)(F)F)cc3)n2)cc1 [Compound 118C]	50 to 100%	50 to 100%	0%			
Cc1cc(C)c(N2C(=O)CS/C2=N\N=C\c2ccc(-c3ncn(-c4ccc(OC(F)(F)F)cc4)n3)cc2)c(C)c1 [Compound 72C]	50 to 100%	50 to 100%	0 to 80%			
COc1ccc(N2/C(=N/N=C/c3ccc(-c4ncn(-c5ccc(OC(F)(F)F)cc5)n4)cc3)SCC2(C)O)c(C)c1 (stereo not drawn) [Compound 245C]	50 to 100%	50 to 100%	0 to 80%			
Cc1cccc(C)c1-n1c(C)cs/c1=N\N=C\c1ccc(-c2ncn(-c3ccc(OC(F)(F)F)cc3)n2)cc1 [Compound 175C]	50 to 100%	50 to 100%	0%			
CC(C)=Cc1ccccc1N1CCCS/C1=N\N=C\c1ccc(-c2ncn(-c3ccc(OC(F)(F)F)cc3)n2)cc1 [Compound 197C]	50 to 100%	50 to 100%	0%			

SMILES	mortality at 50 µg/cm2 ([1]; beet armyworm, 50 μg/cm^2)	mortality at 50 µg/cm2 ([2]; corn earworm, 50 μg/cm^2)	mortality at 200 ppm ([3]; green peach aphid, 200 ppm)	mortality at 50 µg/cm2 [1]	mortality at 50 µg/cm2 [2]	mortality at 200 ppm [3]
Cc1ccccc1N1/C(=N/N=C/c2ccc(-c3ncn(-c4ccc(OC(F)(F)F)cc4)n3)cc2)SCC1C (stereo not drawn) [Compound 154C]	50 to 100%	50 to 100%	0 to 80%			
COc1cc(C)c(/N=C(/N/N=C/c2ccc(-c3ncn(-c4ccc(OC(F)(F)F)cc4)n3)cc2)SCC(=O)C2CCNCC2)c(C)c1 [Compound 65C]	50 to 100%	50 to 100%	0 to 80%			
Cc1cccc(C)c1/N=C(/N/N=C/c1ccc(-c2ncn(-c3ccc(OC(F)(F)F)cc3)n2)cc1)SCc1ccccc1 [Compound 10C]	50 to 100%	50 to 100%	0%			
CC1(O)CS/C(=N\N=C\c2ccc(-c3ncn(-c4ccc(OC(F)(F)F)cc4)n3)cc2)N1c1c(F)cccc1F (stereo not drawn) [Compound 240C]	50 to 100%	50 to 100%	0%			
COc1cccc(N2CCCS/C2=N\N=C\c2ccc(-c3ncn(-c4ccc(OC(F)(F)F)cc4)n3)cc2)c1 [Compound 206C]	50 to 100%	50 to 100%	0%			
CC(C)c1ccccc1N1CCS/C1=N\N=C\c1ccc(-c2ncn(-c3ccc(OC(F)(F)F)cc3)n2)cc1 [Compound 132C]	50 to 100%	50 to 100%	0 to 80%			
Cc1cccc(C)c1/N=C(/N/N=C/c1ccc(-c2ncn(-c3ccc(OC(F)(F)F)cc3)n2)cc1)SCc1ccc(S(N)(=O)=O)cc1 [Compound 13C]	50 to 100%	50 to 100%	0 to 80%			
CC(C)c1ccccc1N1/C(=N/N=C/c2ccc(-c3ncn(-c4ccc(OC(F)(F)F)cc4)n3)cc2)SC(C)C1(C)O (stereo not drawn) [Compound 257C]	50 to 100%	50 to 100%	0%			
CCc1cccc(C)c1N1CCCS/C1=N\N=C\c1ccc(-c2ncn(-c3ccc(OC(F)(F)F)cc3)n2)cc1 [Compound 180C]	50 to 100%	50 to 100%	0 to 80%			
Cc1cccc(C)c1/N=C(/N/N=C/c1ccc(-c2ncn(-c3ccc(OC(F)(F)F)cc3)n2)cc1)SCC(=O)NC[C@@H]1CCCNC1 [Compound 62C, (1Z,2E)-2-oxo-2-(((R)-piperidin-3-ylmethyl)amino)ethyl N-(2,6-dimethylphenyl)-2-(4-(1-(4-(trifluoromethoxy)phenyl)-1H-1,2,4-triazol-3-yl)benzylidene)hydrazinecarbimidothioate trifluoroacetic acid]	50 to 100%	50 to 100%	0 to 80%			
CCC(C)c1ccccc1N1CCS/C1=N\N=C\c1ccc(-c2ncn(-c3ccc(OC(F)(F)F)cc3)n2)cc1 (stereo not drawn) [Compound 135C]	50 to 100%	50 to 100%	0%			
Cc1cccc(Cl)c1N1CCCS/C1=N\N=C\c1ccc(-c2ncn(-c3ccc(OC(F)(F)F)cc3)n2)cc1 [Compound 196C]	50 to 100%	50 to 100%	0%			
Cc1cccc(C)c1/N=C(/N/N=C/c1ccc(-c2ncn(-c3ccc(OC(F)(F)F)cc3)n2)cc1)SCc1c(F)cccc1F [Compound 5C]	50 to 100%	50 to 100%	0 to 80%			
FC(F)(F)Oc1ccc(-n2cnc(-c3ccc(/C=N/N=C4\SCCCN4c4ccccc4C4CC4)cc3)n2)cc1 [Compound 186C]	50 to 100%	50 to 100%	0 to 80%			
COc1cc(C)c(/N=C(\N/N=C/c2ccc(-c3ncn(-c4ccc(C(F)(F)F)cc4)n3)cc2)SCOC(=O)C(C)C)c(C)c1 [Compound 46C]	50 to 100%	50 to 100%	0%			
COc1cc(C)c(/N=C(/N/N=C/c2ccc(-c3ncn(-c4ccc(OC(F)(F)F)cc4)n3)cc2)SCOC(=O)C(C)C)c(C)c1 [Compound 27C]	50 to 100%	50 to 100%	0 to 80%			
COc1ccccc1N1C(=O)CS/C1=N\N=C\c1ccc(-c2ncn(-c3ccc(OC(F)(F)F)cc3)n2)cc1 [Compound 92C]	50 to 100%	50 to 100%	0 to 80%			
Cc1cccc(C)c1/N=C(/N/N=C/c1ccc(-c2ncn(-c3ccc(OC(F)(F)F)cc3)n2)cc1)SCc1ccc(C(F)(F)F)o1 [Compound 16C]	50 to 100%	50 to 100%	0%			
Cc1cccc(C)c1N1CCCS/C1=N\N=C\c1ccc(-c2ncn(-c3ccc(OC(F)(F)F)cc3)n2)cc1 [Compound 182C]	50 to 100%	50 to 100%	0 to 80%			
